Laboratory results from patent publication US9072730B2, “Method of improving cognitive functions in individuals with down syndrome and/or alzheimer's disease” (The Board of Trustees of the Leland Stanford Junior …, priority 2009, dated 2015).
“Also recorded” adds a separate entry of the source.

Experiments:
acute hippocampal slices = assay: Evoked field potentials in acute hippocampal slices (dentate gyrus); design: species or system mouse
Procedure: Three and 6-month-old 2N and Ts65Dn mice were anesthetized with isoflurane before decapitation. The brain was quickly removed and immersed for 2-3 min in ice-cold artificial CSF (ACSF) [containing (in mM): 119 NaCl, 2.5 Kcl, 2.5 CaCl2, 1.3 MgSO4, 1 NaH2PO4, 26 NaHCO3, and 10 glucose], osmolarity 310, continuously bubbled with 95% 02 and 5% CO2, pH 7.4. The HC was extracted and cut in ice-cold ACSF with a vibratome (Leica 1000; Leica, Nussloch, Germany) into 350-μm-thick transverse slices, which were allowed to recover in oxygenated ACSF at 32° C. for 30 min, and then at room temperature for an additional 1-10 hr before experimental recordings. Slices were transferred into the recording chamber and superfused with ACSF at a constant rate of 2.5 ml/min at a temperature of 32° C. Recording electrodes were made of borosilicate glass capillaries (1B150F, World Precision Instruments, Sarasota, Fla.) and were filled with 2M NaCl (resistance […]). Mono polar stimulating electrode was maid of Pt/Ir wires with diameter 25.4 μm (PTT0110, World Precision Instruments, Sarasota, Fla.) and had 100-μm-long exposed tip. The stimulating electrode was inserted under visual control perpendicular to the slice surface into the middle molecular layer (MML), and the recording electrode into the granule cell layer of the DG upper blade. The distance between the electrodes was 250-300 μm. Testing stimuli evoked field responses with population spike amplitudes 65-75% of maximum. The amplitude of the population spike was measured as follows: a line was drawn at the base of the population spike connecting the first and second peaks of the field response, a second line was drawn at the peak of the population spike (i.e., at the peak of the downward deflection), and at the peak of the spike, a line was drawn vertically between these two lines, thus giving the amplitude of the population spike. The magnitude of the fEPSP was measured as the initial slope of the linear part of the fEPSP, which occurred 0.1-1 ms after the presynaptic volley. […]

Ts65Dn mice [1] = assay: Contextual and tone-cued fear conditioning test; format: in vivo, mouse
Procedure: Contextual and tone-cued fear conditioning tests were performed using the Fear Conditioning Video Tracking System (Med-Associates Inc., St. Albans, Vt.). To reduce the stress, each mouse was handled for 5 days. After that, the mice underwent three days of Training day, Tone-Cued in novel context testing day, and Contextual testing day. In the first day, mice went through the Training session. Prior to conditioning, each mice had 3 min to explore the Test Chamber (baseline activity and then they received five tone-shock pairings). The shock (0.5 mA, 50 Hz, 2 sec) delivered after 18 sec from the end of the tone (70 dB, 2 kHz, 20 sec). Therefore, an empty trace interval interposed between the tone and the shock in each conditional stimulus-unconditional stimulus pairing. On the second day (Tone-cued testing day), mice were placed in the novel context (new olfactory and visual cues) for 3 min and subsequently were presented three tone presentations (same as the Training Day) without any shocks. On the last day of the experiment, mice were placed in the context similar to the Training Day for 5 min without any tones or shocks. The effect of L-DOPS on fear conditioning was investigated by treating Ts65Dn mice and their controls 5 hours before the start of each test. The treated mice underwent three days of Training day, Cued testing day and Contextual testing day. L-DOPS was diluted (20 mg/ml) in 0.2M HCL containing 2 mg/ml ascorbic acid. The pH was neutralized with 10M NAOH just before the injection. To counter the peripheral effects of L-DOPS, S-(−) carbidopa was used. Carbidopa was diluted in the same solution (2.5 mg/ml) as L-DOPS. Two groups (10 pairs each) of 5-6-month-old male Ts65Dn and 2N mice were either injected with carbidopa (2.5 mg/ml) or a combination of 20 mg/ml L-DOPS and 2.5 mg/ml carbidopa (50 μl/g subcutaneously) five hours before the start in all 3 days of the experiment. Six-months-old 2N (CD=13, CD+L-DOpS=11) and Ts65Dn (CD=10, CD+L-DOPS=9) mice were used for this study. The effect of β1-partial agonist (xamoterol) on Ts65Dn mice and their controls […]. Xamoterol hemifumarate (Tocris Bioscience, Ellisville, Mich.) was freshly diluted in saline. Two groups of 9-month-old (19 2N and 15 Ts65Dn) mice were subcutaneously injected either with xamoterol (3 mg/kg) or saline (10 ml/kg) exactly […] before all 3 days of fear conditioning test. Nine-months-old 2N (saline=4, xamoterol=8), and Ts65Dn (saline=4, xamoterol=6) mice were used for this study. The data tested using one-way analysis of variance (ANOVA) between the genotypes. The significance of genotype and treatment effects was confirmed by a non-parametric Mann-Whitney U-tests.

[2] = subcutaneous administration; cited from earlier work
[3] = based on the literature; cited from earlier work
Ts65Dn mice [4] = assay: Nesting behavior analysis; format: in vivo, mouse
Procedure: The nesting experiment was performed using 10 pairs of 6-month-old male Ts65Dn (CD=10, CD+L-DOPS=10) and 2N (CD=10, CD+L-DOPS=10) mice. The nesting behavior was analyzed in three different periods (sham, drug and no treatment): Each mouse was placed in individual mouse cages for 4 days. On day 5, each mouse was injected subcutaneously at 1 PM with 50 μl/g of (2.5 mg/ml) carbidopa (Sigma) and returned to their individual cages. The next day, mice were injected the same amount of carbidopa as the day before at 1 PM. At 6 PM, the mice were transferred to a rat cage and one nestlet was placed in each cage. Next morning, the nesting was scored by three investigators blind to the genotype. This was followed by weighing the remaining nestlets. Following the sham experiment, mice were returned to their individual mouse cages without any nestlets for 6 days. On day 7, the mice were injected subcutaneously (50 μl/g) of a combination of (20 mg/ml) L-DOPS and carbidopa (2.5 mg/ml) at 1 PM and were returned to their individual mouse cages. Next day the injection was repeated at 1 PM and at 6 PM the mice were transferred to clean rat cage with one nestlet. The quality and quantity of nesting was scored the morning after. The mice were kept in individual cages for two weeks to minimize the effects of L-DOPS treatment on nesting. […] The quality and quantity of nesting was scored the morning after.

[5] = Norepinephrine and L-DOPS determination in tissue by UV-HPLC; format: in vivo, mouse
Procedure: Mice were deeply anesthetized using sodium pentobarbital (200 mg/kg i.p.) and brains were extracted immediately. The right hippocampal region dissected out on ice, weighed, and frozen shortly after. The rest of the right hemisphere was also weighed and collected. For homogenization, 1 ml of ice-cold 0.05 M phosphoric acid (Sigma) with 10 μl of […] of 3,4-Dihydrxybenzylamine hydrobromide (DHBA; Sigma) used as an internal standard. The tissue samples were sonicated for 3 seconds on ice. The resulting homogenates were centrifuged at 15,000 g for 15 minutes at 4° C. The resulting supernatant was transferred to a conical tube containing 1 ml of 3M tris (pH: 8.6) with 90 mg acid-washed aluminum oxide (Sigma). The mixture was rotated at 4° C. overnight. The alumina was centrifuged for 10 seconds, and washed briefly with 6 mM tris (pH: 8.6) and 3 changes of water (HPLC grade). After final centrifugation, the resulting precipitate was mixed with 1.8 ml of 0.05M H3PO4 (Sigma, puriss>99%) for 30 minutes at 4° C. The solution was filtered with a 0.2 μm filter and used for UV-based HPLC. 4.5 months-old (N=4 pairs of 2N and Ts65Dn) and 18 months (2N; N=8 and Ts65Dn; N=6) were used for this study.
A UV-HPLC machine (Varian, Chicago) equipped with an auto sampler and 2 pumps was used for this study. The machine was connected to a Varian column (Pursuit PFP, 150 mm×4.6 mm, 5 μm, A3050150×046) optimized for catecholamine measurements in aqueous conditions. The mobile phase was consisted of 60% 0.1M citric acid (Sigma) and 40% 0.1M Na2HPO4 both in 0.3 mM HPLC-grade sodium octyl sulfate salt (Sigma) (7). The mobile phase was degassed using 0.2 μm filter and refreshed every week. The flow rate was set at 1.0 ml/min at room temperature and the detection was performed at 270 nm. To achieve maximum performance, the mobile phase was pumped at 0.1 ml/min flow the night before the experiment. The column was washed thoroughly with 50% methanol after each experiment. To calculate the amounts of catecholamines, the height of the peak generated by DHBA, NE, and L-DOPS were measured using Variant software. […]

In the case of CC(C)NCC(O)c1ccc(O)c(O)c1 (stereo not drawn) [ISO], the “effect on slope of fEPSPs, Ts65Dn versus 2N” value (acute hippocampal slices; 6-month-old mice, stimulation of middle molecular layer, recording in granule cell layer) is reported as “stronger effects on slope of fEPSPs in Ts65Dn than 2N mice”, the “recorded response 30 min after application, Ts65Dn versus 2N” value (acute hippocampal slices; ISO 10 μM, 10 min, slices of 6-month old Ts65Dn and age-matched 2N) is reported as “much stronger response in Ts65Dn than 2N mouse” and the “change in population spike amplitude of fEPSPs” value (acute hippocampal slices; ISO 10 μM, 3- and 6-months-old 2N and Ts65Dn mice) is reported as “significant increase in population spike amplitude”. For the same molecule, the “duration of enhancement of population spike amplitude” value (acute hippocampal slices; ISO 10 μM, 3-month-old 2N mice) was “at least 30 min”, the “duration of increase of population spike amplitude” value (acute hippocampal slices; ISO 10 μM, 6 months old mice) was over 1 h and the “slope and amplitude of excitatory postsynaptic potentials (EPSPs)” value (acute hippocampal slices; slices at age 3 months and 6 months, 2N and Ts65Dn mice) was “increase in both the slope and amplitude”. For the same molecule, the “EPSP responses in Ts65Dn slices compared with 2N” value (acute hippocampal slices; slices at age 6 months) was “consistently more robust”.
In the case of O=C(NCCNCC(O)COc1ccc(O)cc1)N1CCOCC1 (stereo not drawn) [xamoterol], the “contextual learning / contextual discrimination (freezing on contextual day)” value (Ts65Dn mice [1]; 9-month-old Ts65Dn mice, xamoterol 3 mg/kg s.c. 1 hour before each test, control saline) is reported as “restored failed contextual learning; also recorded: found to restore contextual learning; also recorded: contextual learning failure was reversed; also recorded: acted to restore contextual learning; also recorded: significant improvement; also recorded: significant restoration of contextual discrimination” and the “difference between 2N and Ts65Dn mice in percent of freezing on contextual day” value (Ts65Dn mice [1]; xamoterol treated 2N vs Ts65Dn, ANOVA F=0.392, p=0.844) is reported as “no longer any differences were found”.
In the case of N[C@H](C(=O)O)[C@H](O)c1ccc(O)c(O)c1 [L-DOPS, L-threo-3,4-dihydroxyphenylserine], the “contextual memory / contextual learning (freezing on contextual day)” value (Ts65Dn mice [1]; 6-month-old Ts65Dn mice, 20 mg/ml L-DOPS + 2.5 mg/ml carbidopa, 50 μl/g s.c., 5 hours before each test, control carbidopa alone) is reported as “significant improvement in contextual memory; also recorded: found to restore contextual learning; also recorded: able to alleviate cognitive failure; also recorded: contextual learning failure was reversed; also recorded: acted to restore contextual learning”, the “difference in freezing between 2N and Ts65Dn mice in contextual test” value (Ts65Dn mice [1]; L-DOPS + carbidopa treated 2N vs Ts65Dn, One-way ANOVA p=0.5247) is reported as “restored fully the difference in freezing; also recorded: no significant difference between the two groups” and the “freezing measured on a minute-by-minute basis in contextual test” value (Ts65Dn mice [1]; L-DOPS + carbidopa treated Ts65Dn mice) is reported as “increased freezing following the first minute”. The “reduction of the deficiency in Ts65Dn mice” value (Ts65Dn mice [1]; L-DOPS treatment versus no treatment) was 80%, the “how much less Ts65Dn mice remembered than their controls after treatment” value (Ts65Dn mice [1]; after treatment with L-DOPS, without treatment 44% less) was 8% and the “time to maximum brain NE levels” value [2] was at most 5 h. The “dose used safely in humans” value [3] was “up to 1 gram per day”, the nesting behavior (Ts65Dn mice [4]; drug period: L-DOPS 20 mg/ml + carbidopa 2.5 mg/ml, 50 μl/g s.c., p=0.0245) was “improved nesting; also recorded: significant improvement in the nesting behavior” and the “nesting behavior after cessation of treatment” value (Ts65Dn mice [4]; no treatment (washout) period of two weeks, p=0.0121) was “again showed poor nesting behavior; also recorded: vanished 2 weeks later”. The “NE levels in the HC of Ts65Dn mice relative to 2N mice” value ([5]; after L-DOPS 1 mg/g with carbidopa 0.125 mg/g) was 96%, the “L-DOPS levels in tissues” value ([5]; six hours after administration, 2N and Ts65Dn mice, L-DOPS 1 mg/g with carbidopa 0.125 mg/g) was “present in all tissues, including brain” and the “L-DOPS tissue levels, difference between genotypes” value ([5]; six hours after administration, 2N vs Ts65Dn, p=0.4894) was “no difference between genotypes”.
